Source: ChEMBL document CHEMBL1159187, “Novel polyamine derivatives as potent competitive inhibitors of Trypanosoma cruzi trypanothione reductase” (Bioorg Med Chem Lett, 1995)
The source made the active and inactive calls. The rule behind the calls is not given here.

Experiments:
[1] = target: Trypanothione reductase (Trypanosoma cruzi, UniProt P28593); assay: Compound was evaluated for the competitive inhibition of trypanothione reduction by recombinant Trypanothione reductase from Trypanosoma cruzi
Chain of Trypanothione reductase (P28593 whole entry): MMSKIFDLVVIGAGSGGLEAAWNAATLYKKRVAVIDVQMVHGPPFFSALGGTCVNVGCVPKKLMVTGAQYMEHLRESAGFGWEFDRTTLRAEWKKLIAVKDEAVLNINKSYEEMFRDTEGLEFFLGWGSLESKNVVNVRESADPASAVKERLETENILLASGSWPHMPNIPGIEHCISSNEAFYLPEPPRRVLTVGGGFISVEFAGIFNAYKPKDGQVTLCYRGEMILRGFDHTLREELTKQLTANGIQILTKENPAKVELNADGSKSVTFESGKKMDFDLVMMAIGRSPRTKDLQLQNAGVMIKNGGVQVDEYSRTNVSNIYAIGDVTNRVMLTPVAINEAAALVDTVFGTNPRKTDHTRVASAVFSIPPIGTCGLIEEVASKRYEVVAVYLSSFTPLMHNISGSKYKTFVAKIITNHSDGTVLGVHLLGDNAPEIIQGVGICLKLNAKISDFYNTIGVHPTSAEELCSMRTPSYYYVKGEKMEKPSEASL

[2] = target: Glutathione reductase (Saccharomyces cerevisiae) (UniProt P41921); assay: Compound was evaluated for the competitive inhibition of glutathione reductase from yeast; No inhibition
Chain of Glutathione reductase (Saccharomyces cerevisiae) (P41921 whole entry, looked up): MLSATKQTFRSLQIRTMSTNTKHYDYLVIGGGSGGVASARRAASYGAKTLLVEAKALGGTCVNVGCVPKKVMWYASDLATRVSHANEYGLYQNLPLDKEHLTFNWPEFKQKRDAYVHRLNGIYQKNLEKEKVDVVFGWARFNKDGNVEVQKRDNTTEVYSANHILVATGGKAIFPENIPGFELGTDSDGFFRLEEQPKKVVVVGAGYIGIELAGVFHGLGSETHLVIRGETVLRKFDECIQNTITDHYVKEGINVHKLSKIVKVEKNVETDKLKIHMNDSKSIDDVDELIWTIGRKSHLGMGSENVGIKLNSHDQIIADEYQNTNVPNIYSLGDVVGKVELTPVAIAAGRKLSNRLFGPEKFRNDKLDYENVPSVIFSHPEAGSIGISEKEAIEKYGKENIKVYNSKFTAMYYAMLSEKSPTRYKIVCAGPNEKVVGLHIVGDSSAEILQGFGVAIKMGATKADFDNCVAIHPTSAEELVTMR

## NCCCCN(CCCN)C(=O)OCc1ccccc1
[1]
  Ki: 280 µM

## NCCCN(CCCCN(CCCN)Cc1ccc2ccccc2c1)Cc1ccc2ccccc2c1
[1]
  Ki: 5.5 µM
[2]
  Activity: inactive

## c1ccc2cc(CNCCCCNCCCNCc3ccc4ccccc4c3)ccc2c1
[1]
  Ki: 9.5 µM
[2]
  Activity: inactive

## NCCCCN(CCCN)Cc1ccc2ccccc2c1
[1]
  Ki: 108 µM

## NCCCN(CCCCN(CCCN)CCCc1ccccc1)CCCc1ccccc1
[1]
  Ki: 3.5 µM
[2]
  Activity: inactive

## O=C(NCCCCNCCCNC(=O)c1ccccc1)c1ccccc1
[1]
  Ki: > 2000 µM

## NCCCN(CCCCN(CCCN)Cc1ccccc1)Cc1ccccc1
[1]
  Ki: 19 µM
